From PMC8666671, “Fine-tuning spermidine binding modes in the putrescine binding protein PotF” (The Journal of Biological Chemistry, 2021)
Residue numbers refer to the chain shown, from its start. “And” between values parts separate entries of the source, which are not always exact repeats. Identical values can stand only once.

Tests used:
PotF_Prox = biological target: T1, PotF_Prox (Escherichia coli, UniProt P31133, D247S/D39E/S38T); test: ITC, PotF_Prox (S38T, D39E, D247S); format: binding; settings: 293 K, 50 mM Tris pH 8, 300 mM NaCl, biological triplicates
T1 construct: without the N-terminal signal peptide; made in house; host or cells: E. coli BL21 (DE3)
T1 sequence (P31133 27-370 S38T/D39E/D247S): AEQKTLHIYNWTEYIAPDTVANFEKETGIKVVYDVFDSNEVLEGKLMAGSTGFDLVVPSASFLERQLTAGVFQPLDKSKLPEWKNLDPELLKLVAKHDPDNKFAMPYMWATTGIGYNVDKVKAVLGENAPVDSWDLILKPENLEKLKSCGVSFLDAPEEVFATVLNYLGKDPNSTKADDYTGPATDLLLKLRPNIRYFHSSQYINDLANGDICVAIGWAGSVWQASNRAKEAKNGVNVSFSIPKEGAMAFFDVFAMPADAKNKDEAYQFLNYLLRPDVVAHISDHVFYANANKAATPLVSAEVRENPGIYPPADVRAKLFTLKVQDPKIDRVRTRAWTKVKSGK
Protocol: (§1) Ligands were always freshly prepared in the exact same buffer as was used for the size exclusion run. Samples were degassed, and temperature was equilibrated using a degassing station (TA Instruments). About 400 μl protein sample of different concentrations (Table S5) depending on affinity was transferred into the sample cell of a nanoITC (TA Instruments), and 50 μl of about tenfold concentrated ligand solution was loaded into the injection needle. Multiple injection measurements were carried out at 293 K, 300 rpm stirring rate, and 250 s spacings between each 2 μl injection. The heat quantity past injection was determined by integration of the measured peaks. Every protein–ligand combination was measured as biological triplicate. Subtraction of heat of dilution measurements, peak integration, and one site binding fits were done with NanoAnalyze (TA Instruments). Reported errors are the errors between fits of the measured triplicates.

PotF/D = biological target: T2, PotF/D (Escherichia coli, UniProt P31133, A182D/D247S/D39E/F276W/L348Q/S38T/S87Y); test: ITC, PotF/D (PotF_SPD; seven PotD binding pocket residues grafted onto PotF); settings: 293 K
T2 construct: without the N-terminal signal peptide; made in house; host or cells: E. coli BL21 (DE3)
T2 sequence (P31133 27-370 S38T/D39E/S87Y/A182D/D247S/F276W/L348Q): T1 sequence (P31133 27-370 S38T/D39E/D247S) with S61Y, A156D, F250W, L322Q
Protocol: as §1

PotD = settings: cited from earlier work

Compound | KD (PotF_Prox) | n (PotF/D; ITC binding stoichiometry) | ΔG (PotF/D; ITC) | ΔH (PotF/D; ITC) | −TΔS (PotF/D; ITC) | Kd (PotF/D; ITC, 50 mM Tris pH 8, 300 mM NaCl, biological triplicates) | ΔG (PotD; ITC) | ΔH (PotD; ITC) | −TΔS (PotD; ITC) | Kd (PotD)
NCCCCN [PUT, putrescine] | abolishes association | – | – | – | – | – | – | – | – | –
NCCCCNCCCN [SPD, spermidine] | – | 0.94 ± 0.02 | -5.94 ± 0.04 kcal/mol | -9.30 ± 0.20 kcal/mol | 3.36 ± 0.24 kcal/mol | ~37 µM and 37.3 µM | -11.13 ± 0.12 kcal/mol | -16.40 ± 1.4 kcal/mol | 5.24 ± 1.39 kcal/mol | ~0.006 µM
